From publication PMC12022909, “A Multicomponent Reaction-Based Platform Opens New Avenues in Aryl Hydrocarbon Receptor Modulation” (ACS Central Science, 2025)
Read-outs that look alike come from different tables or passages of the source.

Legend:
[1] = molecular target: T1, aryl hydrocarbon receptor (AhR) (Homo sapiens, UniProt P35869); experiment: AhR/XRE-dependent luciferase reporter gene assay in XRE-HepG2 cells; format: cell-based; conditions: for EC50: 8 h; for AhR-dependent reporter gene activity on co-treatment with BaP: preliminary data
T1 construct: AhR-dependent reporter gene activity was determined in human HepG2 cells stably transfected with an XRE; endogenous in cells; host or cells: XRE-HepG2 (human HepG2 hepatoma cells stably carrying an XRE-luciferase plasmid)
T1 sequence (P35869 11-848): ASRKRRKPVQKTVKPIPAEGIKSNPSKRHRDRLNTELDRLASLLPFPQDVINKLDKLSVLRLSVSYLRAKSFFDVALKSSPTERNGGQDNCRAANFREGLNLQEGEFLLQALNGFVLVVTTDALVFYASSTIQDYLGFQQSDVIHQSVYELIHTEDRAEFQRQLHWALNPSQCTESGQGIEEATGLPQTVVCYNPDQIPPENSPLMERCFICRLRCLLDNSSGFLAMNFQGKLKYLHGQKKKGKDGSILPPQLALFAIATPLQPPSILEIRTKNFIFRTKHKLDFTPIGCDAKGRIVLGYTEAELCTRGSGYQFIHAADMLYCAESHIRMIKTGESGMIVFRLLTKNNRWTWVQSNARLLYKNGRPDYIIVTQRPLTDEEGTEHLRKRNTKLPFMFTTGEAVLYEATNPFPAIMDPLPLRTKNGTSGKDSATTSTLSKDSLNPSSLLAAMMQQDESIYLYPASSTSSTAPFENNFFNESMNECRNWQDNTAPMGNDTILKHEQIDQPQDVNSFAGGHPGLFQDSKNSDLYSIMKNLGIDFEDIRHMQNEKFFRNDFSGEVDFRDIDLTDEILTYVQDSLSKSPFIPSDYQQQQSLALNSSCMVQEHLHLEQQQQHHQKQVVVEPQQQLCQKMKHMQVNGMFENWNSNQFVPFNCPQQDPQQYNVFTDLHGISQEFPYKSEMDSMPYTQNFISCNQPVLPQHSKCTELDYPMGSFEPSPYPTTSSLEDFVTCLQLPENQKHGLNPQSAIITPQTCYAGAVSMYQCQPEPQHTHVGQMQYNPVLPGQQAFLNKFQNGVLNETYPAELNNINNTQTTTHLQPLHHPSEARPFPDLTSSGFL
Protocol: (f) AhR/XRE-dependent reporter gene activity results (EC50/μM).
Data are shown as mean ± SEM.
The human XRE -HepG2 reporter cell -line was a kind gift of K. Gradin and L. Poellinger (Karolinska Institute, Stockholm,
antibiotic/antimycotic solution, and 0.8 mg/ml G418. All cells were cultivated at 37 °C in a humidified atmosphere containing 5% CO 2.
AhR-dependent reporter gene activity was determined in human HepG2 cells stably transfected with an XRE -harboring luciferase plasmid (XRE-HepG2 cells). […] Luciferase activity was normalized to protein content.

[2] = system: HaCaT cells; experiment: UVA phototoxicity, caspase 3 activity in HaCaT cells; format: cell-based, human; conditions: HaCaT, 1 h, UVA 5 J/cm2
Protocol: Irradiation with UVA and caspase 3 activity measurement […]
culture media was exchanged with PBS and the cells were sham or UVA (5 J/cm2) irradiated using the BS-02 irradiation chamber (Opsytec Dr. Gröbel, Ettlingen Germany). Media was added to the cells and after 4 h incubation, caspase 3 activity was measured as described previously.[33] Protein quantification was done with the Bio-Rad DC protein assay kit (Bio-Rad Laboratories, Hercules, CA) according to the manufacturer protocol.
We compared the phototoxic potential of five of our test compounds (8, 10, 5b, 5h, 4b) as well as the FDA-approved AhR activator […]
induced caspase activity at a concentration of 100 nM (Figure S36A). At a 10-fold higher concentration (1 µM) two of the test compounds […]
Figure S36. […] For statistical analysis a two-way ANOVA (Tukey post-hoc) was performed and data are shown as mean ± SEM. (*, p ≤ 0.05). […]

[3] = Solubility in the growing media during cytotoxicity testing; format: physicochemical; conditions: concentration of 100 µM
Protocol: A phosphatidylserine exposure was used to determine cell viability. Cells were washed with PBS, pelleted, and then incubated with annexin binding buffer containing Annexin V-APC (Life Technologies) for 15 min in the dark. Then, samples were analyzed by flow cytometry using FACSCanto II and FACSDiva (BD Biosciences, Franklin Lakes, NJ, USA). Data represents the percentage of non - apoptotic cells (Ann -APC-).
The cytotoxicity of a selection of the synthesized compounds was assessed after 24 hours of treatment in two human cell lines, Jurkat and HEK293T, coming from either tumoral T-cell lymphocytes or non-tumoral embryonic kidney fibroblasts, respectively. […]
the pro-apoptotic activity was not significant below 10 µM for most compounds in both cell lines, except for 5i, 5k and 5l in both cell lines, as well as 9a in Jurkat and 5e HEK293T cells (Figure S35A-B).
Moreover, the cytotoxicity of compounds 4d, 5b, 5h, 8, 10, and 12d at a higher concentration (100 µM) was assessed in both cell lines, Jurkat and HEK293T. The cytotoxicity of compounds 5b, 5h, and 12d could not be properly tested as the compounds were not soluble […]
effects observed for compound 4d in Jurkat cells and compound 8 in HEK293T cells (Figure S35C).
Figure S35. A) Jurkat and B) HEK293T cells were treated with 1 and 10 µM doses of the corresponding compound for 24 hours. Indicated doses of fluorizoline were used as a positive control of cell death. C) Jurkat and HEK293T cells were treated with 100 µM of the corresponding compound for 24 hours. Viability was measured by flow cytometry, and it is expressed as the mean ± SEM (n = 3) of the percentage of non -apoptotic cells (Ann-APC-). * p < 0.05, ** p < 0.01 *** p < […]
(1 picture or pasted object on this page, not shown here)

[4] = XRE-HepG2 cells, unit as in the supplements, read-out: AhR/XRE-dependent luciferase activity EC50
[5] = XRE-HepG2 hepatoma cells, luciferase activity, read-out: AhR/XRE-dependent reporter gene activity (EC50)

Compound | EC50 [1, 4] [nM] | further results
CC1(C)CC(=O)C(c2c3[nH]c4ccccc4c3cc3[nH]c4ccccc4c23)=C(O)C1 [4a] | 2250 | 
O=C1OCC(O)=C1c1c2[nH]c3ccccc3c2cc2[nH]c3ccccc3c12 [4b] | > 10000 | AhR-dependent reporter gene activity on co-treatment with BaP [1]: synergistic effects; UVA radiation-induced caspase activity (phototoxicity) ([2]; 100 nM): neither tapinarof nor our 6-ICZ compounds enhanced; UVA radiation-induced caspase activity (phototoxicity) ([2]; 1 µM): did not show any signs of phototoxicity
O=c1oc2ccccc2c(O)c1-c1c2[nH]c3ccccc3c2cc2[nH]c3ccccc3c12 [4c] | 4510 | 
Brc1ccc2[nH]cc(-c3c4[nH]c5ccccc5c4cc4[nH]c5ccccc5c34)c2c1 [5b] | 940 | solubility in the growing media [3]: not soluble; UVA radiation-induced caspase activity (phototoxicity) ([2]; 100 nM): neither tapinarof nor our 6-ICZ compounds enhanced; UVA radiation-induced caspase activity (phototoxicity) ([2]; 1 µM): exhibited similar effects to FICZ
c1ccc2c(-c3c4[nH]c5ccccc5c4cc4[nH]c5ccccc5c34)c[nH]c2c1 [5c] |  | EC50 [1, 5]: 360 nM
c1ccc(-c2[nH]c3ccccc3c2-c2c3[nH]c4ccccc4c3cc3[nH]c4ccccc4c23)cc1 [5f] | 1170 | 
OCc1[nH]c2ccccc2c1-c1c2[nH]c3ccccc3c2cc2[nH]c3ccccc3c12 [5g] | 1820 | 
Cc1cccc2[nH]cc(-c3c4[nH]c5ccccc5c4cc4[nH]c5ccccc5c34)c12 [5h] | 570 | solubility in the growing media [3]: not soluble; UVA radiation-induced caspase activity (phototoxicity) ([2]; 100 nM): neither tapinarof nor our 6-ICZ compounds enhanced
Cc1cccc2c(-c3c4[nH]c5ccccc5c4cc4[nH]c5ccccc5c34)c[nH]c12 [5i] | 450 | 
Cc1[nH]c2ccccc2c1-c1c2c3ccccc3n(C)c2cc2c3ccccc3n(C)c12 [5j] | 1200 | reduction of activity compared to N,N′-H analog 5e ([1]; from reporter gene EC50 values): 2.3 fold
COc1ccc2[nH]c3c(-c4c(C)[nH]c5ccccc45)c4c(cc3c2c1)[nH]c1ccc(OC)cc14 [5l] | 630 | 
O=C(O)c1ccc2c(-c3c4[nH]c5ccccc5c4cc4[nH]c5ccccc5c34)c[nH]c2c1 [5m] | > 10000 | 
CS(=O)(=O)Nc1ccc(-c2ccc3[nH]cc(-c4c5[nH]c6ccccc6c5cc5[nH]c6ccccc6c45)c3c2)cc1 [9a] | 100 | 
Cc1ccc(C#Cc2ccc3[nH]cc(-c4c5[nH]c6ccccc6c5cc5[nH]c6ccccc6c45)c3c2)cc1 [9b] | > 10000 | AhR-dependent reporter gene activity on co-treatment with BaP [1]: synergistic effects
CCCCCNC(=O)c1ccc2c(-c3c4[nH]c5ccccc5c4cc4[nH]c5ccccc5c34)c[nH]c2c1 [12a] |  | EC50 [1, 5]: 400 nM
O=C(NCCCCCCCCCCNC(=O)c1ccc2c(-c3c4[nH]c5ccccc5c4cc4[nH]c5ccccc5c34)c[nH]c2c1)c1ccc2c(-c3c4[nH]c5ccccc5c4cc4[nH]c5ccccc5c34)c[nH]c2c1 [12c] | 6060 | 
O=C(NCCCOCCOCCOCCCNC(=O)c1ccc2c(-c3c4[nH]c5ccccc5c4cc4[nH]c5ccccc5c34)c[nH]c2c1)c1ccc2c(-c3c4[nH]c5ccccc5c4cc4[nH]c5ccccc5c34)c[nH]c2c1 [12d] | > 10000 | solubility in the growing media [3]: not soluble
Clc1cc2c(cc1Cl)Oc1cc(Cl)c(Cl)cc1O2 [TCDD, 2,3,7,8-tetrachlorodibenzodioxin, reference compound] | 3 | 
CC(C)c1c(O)cc(/C=C/c2ccccc2)cc1O [Tapinarof, tapinarof, reference compound] |  | UVA radiation-induced caspase activity (phototoxicity) ([2]; 100 nM): neither tapinarof nor our 6-ICZ compounds enhanced; UVA radiation-induced caspase activity (phototoxicity) ([2]; 1 µM): did not show any signs of phototoxicity
